Literature values, collected in patent US7739091B2, “Method for estimating protein-protein binding affinities” (The Research Foundation of State University of New York, priority 2006, dated 2010).

Conditions: side chain flanked by peptide bonds, water to n-octanol

| SMILES | transfer free energy [kcal/mol] |
| --- | --- |
| C[C@H](N)C(=O)O [Ala] | 0.87 |
| N[C@@H](Cc1c[nH]cn1)C(=O)O [His] | 0.92 |
| N[C@@H](Cc1ccccc1)C(=O)O [Phe] | -1.81 |
| N[C@@H](CO)C(=O)O [Ser] | 0.85 |
| C[C@@H](O)[C@H](N)C(=O)O [Thr] | 0.95 |
| N[C@@H](Cc1ccc(O)cc1)C(=O)O [Tyr] | -0.8 |
